Test results reported in PMC1459859, “Display of a thermostable lipase on the surface of a solvent-resistant bacterium, Pseudomonas putida GM730, and its applications in whole-cell biocatalysis” (BMC Biotechnology, 2006).

Experiments:
[1] = target: T1, TliA (thermostable lipase), displayed as INPNC-TliA (Pseudomonas fluorescens, UniProt Q9ZG91); assay: whole-cell chiral resolution, HPLC; format: cell-based; settings: INPNC-TliA displayed on P. putida GM730/pJHC13 cells; 50 mM racemic substrate; two-phase PBS-isooctane; 25 °C; 72 h; R-selective
T1 sequence (Q9ZG91 1-476): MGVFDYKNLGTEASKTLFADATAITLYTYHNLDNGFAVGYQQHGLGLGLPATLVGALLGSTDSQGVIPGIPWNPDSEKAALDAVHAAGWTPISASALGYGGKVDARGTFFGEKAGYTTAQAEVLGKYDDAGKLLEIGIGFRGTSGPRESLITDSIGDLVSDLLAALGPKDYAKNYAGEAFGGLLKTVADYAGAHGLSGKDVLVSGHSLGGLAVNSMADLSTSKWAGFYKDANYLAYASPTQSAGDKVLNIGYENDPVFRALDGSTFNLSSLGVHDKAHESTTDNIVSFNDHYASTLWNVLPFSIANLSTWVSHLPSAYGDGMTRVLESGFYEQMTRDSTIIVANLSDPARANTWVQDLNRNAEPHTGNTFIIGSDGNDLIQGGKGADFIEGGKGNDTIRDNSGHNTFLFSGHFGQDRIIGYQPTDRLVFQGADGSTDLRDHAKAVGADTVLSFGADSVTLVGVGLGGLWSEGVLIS

[2] = target: T1, TliA (thermostable lipase), displayed as INPNC-TliA; assay: whole-cell lipase activity, spectrophotometric; format: cell-based; settings: INPNC-TliA displayed on P. putida GM730/pJHC13 cells; PBS-washed; induced with 1 mM IPTG

| SMILES | whole-cell chiral resolution, HPLC [1] | whole-cell lipase activity, spectrophotometric [2] |
| --- | --- | --- |
| CC(C(=O)Oc1ccc([N+](=O)[O-])cc1)c1ccccc1 (racemic) [4-nitrophenyl 2-phenylpropionate] | enantiomeric excesses of the surviving p-nitrophenyl 2-phenylpropionate and the product (R) 2-phenylpropionic acid |  |
| CCCCCCCCCCCCCCCC(=O)Oc1ccc([N+](=O)[O-])cc1 [p-nitrophenyl palmitate] |  | whole-cell enzyme activities were measured with p-nitrophenyl palmitate (pNPP), which does not enter the cells |
